Results: PubChem BioAssay AID743395 (Broad Institute, 2014)

The compounds below were run on HepG2 viability, CellTiter-Glo ATP luminescence, 72 h (assay: HepG2 cell cytotoxicity, dose response, cytotoxicity control, CellTiter-Glo luminescence, cherry-pick, set 2 (AID 743395)).

Compound	AC35
CCc1ccc(OCCNc2cc(N3CCNC(C)C3)ccc2[N+](=O)[O-])cc1 (configuration not stated)	9.58 µM
COc1ccc2[nH]c(C(=O)N/N=C/c3ccc(O)cc3O)cc2c1	3.37 µM
Cc1ccc(C2(C)NC(=O)N(CC(=O)Nc3nc(-c4ccccn4)cs3)C2=O)cc1 (configuration not stated)	4.46 µM
COc1cc(OC)c2c(-c3cccc(-c4sccc4C(C)=O)c3)cc(=O)oc2c1	7.12 µM
CCN(CC)c1ccc(/C=N/NC(=O)c2ccco2)c(O)c1	1.13 µM
CC(=NNC(=S)Nc1ccc(C)cc1)c1ccccn1	0.123 µM
COc1ccc(S(=O)(=O)Nc2ccc3c(c2)C(=O)N([C@H](C)CO)C[C@@H](C)[C@@H](CN(C)Cc2ccc(Cl)c(Cl)c2)O3)cc1	14.1 µM
CCCNC(=O)c1ccc2c(=O)c(O)c(-c3cccc(Br)c3)[nH]c2c1	4.65 µM
CCOC(=O)N1CCC(NC(=O)c2ccc3c(c2)N=C(C)c2c(C)ccc(C)c2S3)CC1	2.44 µM
COc1ccc(NC(=O)Nc2ccc3c(c2)C(=O)N([C@H](C)CO)C[C@@H](C)[C@H](CN(C)Cc2ccc(C(F)(F)F)cc2)OCCCC[C@H](C)O3)cc1	13.9 µM
COc1ccc(COc2cc(-c3cccc(OC)c3)nc3ccc(NC(=O)c4ccc(OC)cc4)cc23)cc1	7.56 µM
COc1cccc(-c2cc3nc(-c4ccccc4)cc(=O)n3[nH]2)c1	7.55 µM
CC(=O)Nc1ccc(Nc2c3ccccc3nc3ccccc23)cc1	5.33 µM
CC12CCC(CC1O)C2C(=O)O (configuration not stated)	17.9 µM
COc1cccc(/C=N/NC(=O)C(=O)Nc2ccccc2OC(F)(F)C(F)F)c1O	15 µM
O=C1c2ccccc2C(=O)c2c1cccc2N1CCCC1	18.9 µM
COc1cc(C#Cc2ccc3cc(CCCO)oc(=O)c3c2)cc(OC)c1	6.25 µM
O=C(NN=C1CCCC1)c1[nH]c2ccc(Cl)cc2c1-c1ccccc1	18.9 µM
Cc1nn2cc(-c3cccc(Cl)c3)cnc2c1Br	11.1 µM
COc1ccc(C2C3=C(COC3=O)Oc3cc4c(cc32)OCO4)cc1OC (configuration not stated)	10.9 µM
CCCC#Cc1ccc([C@H]2[C@@H](CO)N3CCCCN(S(=O)(=O)c4ccccc4C)C[C@H]23)cc1	8.96 µM
Brc1ccc2c(c1)C(C1=NCCN1)c1ccccc1CS2 (configuration not stated)	18.3 µM
COc1cc(/C=C(\C#N)c2nc3ccccc3[nH]2)cc(OC)c1O	17.2 µM
OC[C@@H]1CN(Cc2ccc(-c3ccccc3)cc2)C[C@H](n2cnc3c(NC4CC4)ncnc32)O1	19.3 µM
Cn1cccc1/C=C1\SC(=Nc2cccc(O)c2)NC1=O	14.2 µM
COc1cc(OC)cc(C(=O)c2c(C)c(C#N)c3ccccn23)c1	9.29 µM

Compound	AC35
COc1cc(C(=O)Nc2ccc3c(c2)CCN3C(C)=O)cc(OC)c1OC	3.94 µM
C[C@H]1CCC/C=C/[C@@H]2C[C@H](O)C[C@H]2[C@H](O)/C=C/C(=O)O1	0.115 µM
Cc1cc(Br)cc(/C=N/NC(=O)c2ccc3c(c2)OCO3)c1O	8 µM
CCN(CC)CCn1c2ccccc2c2nc3ccccc3nc21	19.9 µM
COc1ccc(NC(=O)c2nc(C)c(C3(C)CC(c4cccnc4)=NO3)s2)cc1 (configuration not stated)	13.9 µM
C[C@@H]1CN([C@H](C)CO)S(=O)(=O)c2ccc(-c3ccccc3)cc2O[C@H]1CN(C)Cc1ccccn1	16.7 µM
COc1cc2c(-c3ccccc3)c(C)oc2cc1/C=N/NC(N)=S	6.29 µM
COc1cc(-c2nccc3cc4c(cc23)OCO4)cc(OC)c1OC	5.6 µM
COCCNC(=O)c1cc(-c2ccc(-c3ccccc3)cc2)nc2ccccc12	17.9 µM
O=C(N=Nc1c(O)[nH]c2ccc(Br)cc12)c1ccccc1-n1cccc1	13.1 µM
COc1ccc(C2c3ccc4ccccc4c3Oc3ncn(CCCO)c(=N)c32)cc1OC (configuration not stated)	18.7 µM
CCN(CC)CCCNc1nc2ccccc2c2nc(-c3ccncc3)nn12	7.23 µM
CC(=O)Oc1c(C)cc(Cl)cc1C(=O)Nc1ccc([N+](=O)[O-])cc1Cl	0.712 µM
C[C@H]1CN([C@@H](C)CO)S(=O)(=O)c2ccc(-c3ccc(C#N)cc3)cc2O[C@@H]1CN(C)Cc1ccccn1	5.26 µM
COc1ccc([N+](=O)[O-])cc1Nc1c2ccccc2nc2ccccc12	18.4 µM
O=C(Cc1ccc(Br)cc1)NCc1ccccc1	5.52 µM
Oc1ccc2ccccc2c1/C=C/c1ccc2c(Br)cc(Br)c(O)c2n1	9.42 µM
O=C1C=C(NCCc2cc(Br)c(O)c(Br)c2)C(=O)c2ncccc21	6.95 µM
Cc1c(C2Nc3ccccc3C2C)[nH]c2ccccc12 (configuration not stated)	6.86 µM
O=C1CC(c2ccccc2)CC2=C1C=Nc1ccccc1N2 (configuration not stated)	18.3 µM
COC(=O)CSC1=C(C#N)C(c2ccc(C)o2)CC(=O)N1 (configuration not stated)	19.1 µM
Cc1ccc2c(c1)CCCN2C(=O)CCc1nc2ccccc2c(=O)[nH]1	7.93 µM
O=C1c2ccccc2C(=O)c2c1cccc2N(CCO)CCO	16.7 µM
CCCC(=O)NC(c1ccc(Cl)cc1)c1ccc2cccnc2c1O (configuration not stated)	1.77 µM
COC(=O)C1=CN(c2ccc(OC)cc2OC)C(N)=C(C#N)C1c1ccccc1F (configuration not stated)	6.17 µM
O=S(=O)(Cc1ccc(Cl)cc1Cl)c1ccc(Cl)cc1	11.3 µM
